In patent US10624845B2 (The Procter & Gamble Company, priority 2015, dated 2020):

Assays:
[1] = test system: buccal tissue (EpiOral® tissues); settings: for Average Apparent Permeability Coefficient Papp: donor pH 9.0, receiver pH 7.4, co-dosed 100 μM (caffeine 50 μM), n=6
[2] = test system: buccal tissue (EpiOral® tissues); experiment: Permeability Enhancer Assay (Permeability Enhancer Test); settings: pH 5.0; reference […]10^−6 cm/s
Text: The donor side was not sampled and donor concentration was not measured.

in vitro = settings: human

Structure (SMILES) | Average Apparent Permeability Coefficient Papp [1] | effect of the enhancer on the Papp of diphenhydramine versus reference Papp from the Permeability Test [2] | also measured
Cn1c(=O)c2c(ncn2C)n(C)c1=O [Caffeine] | 33.3 ± 3.55 10^−6 cm/s | – | change of Papp at pH 9.0 compared to that at pH 5.0 and 7.4 ([1]; pH 9.0 vs pH 5.0 and 7.4): only moderately increased
CCCCCCCCCCCCCCCC[n+]1ccccc1 [Cetylpyridinium chloride] | – | higher | –
CC(C)NCC(O)COc1cccc2ccccc12 (stereo not drawn) [Propranolol] | 21.5 ± 4.66 10^−6 cm/s | – | Papp at 120 min, 100 μM (in vitro; pH 5): 1.45 ×10⁻⁶ cm/s; Papp at 120 min, 100 μM (in vitro; pH 7.4): 9.35 ×10⁻⁶ cm/s; Papp at 120 min, 100 μM (in vitro; pH 9): 21.5 ×10⁻⁶ cm/s
CCCCCCCCCCCCOS(=O)(=O)[O-].[Na+] [SDS, sodium dodecyl sulfate] | – | lower | –
CCCCCCCCCC(=O)[O-].[Na+] [Sodium Caprate] | – | higher | –
